A short description of data set [1]: Cytotoxicity test (Cell Counting Kit-8). The class given is cell-based. As to conditions: human, Firefly luciferase HCV replicon cells (3-1); Cell Counting Kit-8, absorbance 450 nm, after 3 days culture with compound. The procedure:
(§1) Firefly luciferase HCV replicon cells (3-1) were suspended in Dulbecco's MEM (Gibco Cat. No. 10569-010) containing 5% fetal calf serum (Hyclone Cat. No. SH30071.03) and inoculated into a 96-well plate at 5000 cells/well followed by culturing overnight at 5% CO2 and 37° C. After about 20 hours, 10 μl of a diluted compound was added to each well followed by additional culturing for 3 days. Two series of the assay plates were prepared, and assay was conducted using white plates for one series while using clear plates for the other series. Following completion of culturing, the white plates were used with the Steady-Glo Luciferase Assay System (Promega Cat. No. E2520). More specifically, 100 μl of reagent was placed in each well and after mixing 3 to 4 times with a pipette and allowing to stand for 5 minutes, luminescence was measured with the 1450 MicroBeta TRILUX (WALLAC). The value in the absence of cell addition was used to indicate the background value, and that value was subtracted from all values to calculate the IC50 value (concentration resulting in 50% inhibition) of the drug based on 0% inhibition for the value obtained in the absence of drug addition.
(§2) The Cell Counting Kit-8 (Dojindo Cat. No. CK04) was used for measurement of cytotoxicity. More specifically, 10 μl of the Cell Counting Kit-8 was added to the clear plates followed by incubating at 37° C. for 30 to 60 minutes. Absorbance at a wavelength of 450 nm and control wavelength of 630 nm was measured with a 96-well plate reader. The value obtained in the absence of cell addition was used as a background value, and that value was subtracted from all values to calculate the CC50 value (concentration resulting in 50% cell inhibition) of the drug based on 0% inhibition for the value obtained in the absence of drug addition.
For orientation: Tetrazolium assays rely on reduction of a dye to a coloured formazan, in cell work by metabolically active cells.

Data set [2] concerns Firefly luciferase HCV replicon cells (3-1). Briefly: Replicon assay (firefly luciferase HCV replicon). The conditions noted are these: Hepatitis C virus, 72 h; luciferase luminescence after 3 days culture with compound, Huh7-derived replicon cells. It counts as cell-based. How it is done: A construct was prepared in which luciferase gene derived from firefly was inserted as a reporter gene in HCV-RNA to assay the number of copies of HCV-RNA. The luciferase gene was inserted in a form that fuses with the neomycin resistance gene directly below IRES (Internal Ribosome Entry Site) of HCV gene in accordance with the method of Krieger, et al. (J. Virol. 75: 4614). After synthesizing the RNA in vitro, it was introduced into Huh7 cells by electroporation followed by isolation as G418 resistant clone.
as §1
Background: A replicon is a self-replicating genome or part of one, used to study replication in cells.

For data set [3] the test system is unchanged. Briefly: Cytotoxicity test (Cell Counting Kit-8). The class given is cell-based. The conditions noted are these: Cell Counting Kit-8, absorbance 450 nm, after 3 days culture with compound. How it is done: as §1, §2
The subject of data set [4] is Candida albicans. As to conditions: known from WO98/56755; cited from earlier work.
The test system of data set [5] is Cryptococcus neoformans. As to conditions: known from WO98/56755; cited from earlier work.
For data set [6], the system named is immune reactions. As to conditions: known from WO98/56755; cited from earlier work.

A value given as a limit tells only on which side of the number the result lay.

One may read the CC50 as the concentration that lowers cell viability or growth by half. As usually defined, the IC50 is the point on the concentration scale where inhibition reaches its midpoint.

As to `CCCCCCCC(CCCCCC/C=C/[C@H](C(=O)N[C@@H](Cc1ccc(OCC=C(C)C)cc1)C(=O)O)[C@@](O)(CC(=O)O)C(=O)O)=NOC` [Compound 15], the CC50 at 3 days in data set [1] is over 50000 nM. Also, the IC50 in data set [2] came to 20 nM.

As for `CCCCCCCC(=O)CCCCCC/C=C/[C@H](C(=O)N[C@@H](Cc1ccc(OC)cc1)C(=O)O)[C@@](O)(CC(=O)O)C(=O)O` [Compound 26], the CC50 at 3 days in data set [1] was over 1000 nM. Also, in data set [2], the IC50 worked out at 3 nM.

As to `CCCCCCCC(=O)CCCCCC/C=C/[C@H](C(=O)N[C@@H](Cc1ccc(O)cc1)C(=O)O)[C@@](O)(CC(=O)O)C(=O)O` [Compound 9], in data set [1], the CC50 at 3 days was over 5000 nM. Also, in data set [2], the IC50 was 20 nM.

In the case of `CCCCCCCC(=O)CCCCCC/C=C/[C@H](C(=O)N[C@@H](Cc1ccc(OCC=C(C)C)cc1)C(=O)OC)[C@@](O)(CC(=O)OC)C(=O)O` [Compound 3], the CC50 at 3 days in data set [1] was over 1000 nM. The IC50 in data set [2] was found to be 76 nM.

On to `CCCCCCCC(=O)CCCCCC/C=C/[C@H](C(=O)N[C@@H](Cc1ccc(OCCC)cc1)C(=O)O)[C@@](O)(CC(=O)O)C(=O)O` [Compound 24], for which, in data set [1], the CC50 at 3 days is over 1000 nM. Besides, the IC50 in data set [2] stood at 2 nM.

Regarding `CCCCCCCC(=O)CCCCCC/C=C/[C@H](C(=O)N[C@@H](Cc1ccc(OCCC(C)C)cc1)C(=O)O)[C@@](O)(CC(=O)O)C(=O)O` [Compound 7], in data set [1], the CC50 at 3 days is over 5000 nM. The IC50 in data set [2] worked out at 2 nM.

In the case of `CCCCCCCC(=O)CCCCCCCC[C@H](C(=O)N[C@@H](Cc1ccc(O)cc1)C(=O)O)[C@@](O)(CC(=O)O)C(=O)O` [Compound 10], the CC50 at 3 days in data set [1] was over 50000 nM. The IC50 in data set [2] was 245 nM.

On to `CCCCCCCC(=O)CCCCCC/C=C/[C@H](C(=O)N[C@@H](Cc1ccc(OCC=C(C)C)cc1)C(N)=O)[C@@](O)(CC(N)=O)C(N)=O` [Compound 11], for which, in data set [1], the CC50 at 3 days was over 5000 nM. The IC50 in data set [2] was 262 nM.

As for `CCCCCCCC(=O)CCCCCC/C=C/[C@H](C(=O)N[C@@H](Cc1ccc(OCCCC)cc1)C(=O)O)[C@@](O)(CC(=O)O)C(=O)O` [Compound 23], the half-maximal cytotoxic concentration (CC50) at 3 days in data set [1] is over 1000 nM. The IC50 in data set [2] was 1 nM.

For `CCCCCCCC(=O)CCCCCC/C=C/[C@H](C(=O)N[C@@H](Cc1c[nH]c2ccccc12)C(=O)O)[C@@](O)(CC(=O)O)C(=O)O` [Compound 5], the CC50 at 3 days in data set [1] was over 1000 nM. In addition, the IC50 in data set [2] is 82 nM.

With `C=CCOc1ccc(C[C@H](NC(=O)[C@@H](/C=C/CCCCCCC(=O)CCCCCCC)[C@@](O)(CC(=O)O)C(=O)O)C(=O)O)cc1` [Compound 25], the CC50 at 3 days in data set [1] was over 1000 nM. Also, in data set [2], the IC50 worked out at 1 nM.

As for `CCCCCCC(O)C(=O)CCCCCC/C=C/[C@H](C(=O)N[C@@H](Cc1ccc(OCC=C(C)C)cc1)C(=O)O)[C@@](O)(CC(=O)O)C(=O)O` (stereo partly shown) [Compound 6], in data set [1], the CC50 at 3 days is over 1000 nM. For the same molecule, in data set [2], the IC50 was found to be 7 nM.

Take `CC#CCOc1ccc(C[C@H](NC(=O)[C@@H](/C=C/CCCCCCC(=O)CCCCCCC)[C@@](O)(CC(=O)O)C(=O)O)C(=O)O)cc1` [Compound 21]: the CC50 in data set [3] is over 5000 nM.

`CCCCCCCCCCCCCC/C=C/[C@H](C(=O)N[C@@H](Cc1ccc(OCC=C(C)C)cc1)C(=O)O)[C@@](O)(CC(=O)O)C(=O)O` (mixture of isomers) [Compound 13]: the CC50 at 3 days in data set [1] was over 50000 nM. Also, the half-inhibitory concentration (IC50) in data set [2] amounted to 100 nM.

Take `CCCCCCCC(=O)CCCCCC/C=C/[C@H](C(=O)N[C@@H](Cc1ccc(OCC=C(C)C)cc1)C(=O)O)[C@@](O)(CC(=O)OC)C(=O)O` [Compound 2]: in data set [1], the CC50 at 3 days is over 1000 nM. Also, the IC50 in data set [2] was determined as 128 nM.

In the case of `CCCCCCC(O)C(=O)CCCCCC/C=C/[C@H](C(=O)N[C@@H](Cc1ccc(O)cc1)C(=O)O)[C@@](O)(CC(=O)O)C(=O)O` (stereo partly shown) [Compound 4], the CC50 at 3 days in data set [1] was over 1000 nM. For the same molecule, the IC50 in data set [2] was found to be 103 nM.

In the case of `CCCCCCCC(O)CCCCCC/C=C/[C@H](C(=O)N[C@@H](Cc1ccc(OCC=C(C)C)cc1)C(=O)O)[C@@](O)(CC(=O)O)C(=O)O` (stereo partly shown) [Compound 8], the CC50 at 3 days in data set [1] was over 5000 nM. The IC50 in data set [2] stood at 5 nM.

For the molecule `CCCCCCCC(=O)CCCCCC/C=C/[C@H](C(=O)N[C@@H](Cc1ccc(OC)c(OC)c1)C(=O)O)[C@@](O)(CC(=O)O)C(=O)O` [Compound 22], the CC50 in data set [3] is over 1000 nM.

Consider `CCCCCCC/C(CCCCCC/C=C/[C@H](C(=O)N[C@@H](Cc1ccc(OCC=C(C)C)cc1)C(=O)O)[C@@](O)(CC(=O)O)C(=O)O)=N/OCCN` [Compound 14], for which the CC50 at 3 days in data set [1] was 22000 nM. Moreover, the IC50 in data set [2] was 20 nM.

As to `CCCCCCCC(=O)CCCCCCCC[C@H](C(=O)N[C@@H](Cc1ccc(OCCC(C)C)cc1)C(=O)O)[C@@](O)(CC(=O)O)C(=O)O` [Compound 12], the CC50 at 3 days in data set [1] was over 5000 nM. For the same molecule, the IC50 in data set [2] turned out to be 72 nM.

As for `CCCCCCCC(=O)CCCCCC/C=C/[C@H](C(=O)N[C@@H](Cc1ccc(OCC=C(C)C)cc1)C(=O)O)[C@@](O)(CC(=O)O)C(=O)O` [Compound 1], the “antimicrobial activity against Candida albicans” value in data set [4] is “antimicrobial activity”. Further, the CC50 at 3 days in data set [1] was over 5000 nM. Besides, in data set [5], the “antimicrobial activity against Cryptococcus neoformans” value is recorded as “antimicrobial activity”. In addition, the “effects that inhibit immune reactions” value in data set [6] is on record as “inhibit immune reactions”. In addition, the IC50 in data set [2] worked out at 2 nM.

The values are drawn from patent US7776918B2, “Remedy for viral disease” (Chugai Seiyaku Kabushiki Kaisha, priority 2003, dated 2010).
